# Measured values: patent publication US11896007B2, “Pest control using natural pest control agent blends” (TYRATECH, INC., priority 2008, dated 2024)
# Legend:
# [1] = molecular target: T1, Drosophila TyrR (Drosophila melanogaster, UniProt P22270, C261Y); experiment: Competitive tyramine receptor binding assay with 3H-tyramine
# T1 construct: The open reading frame contained in this PCR product encodes a protein of 601 amino acids; expressed in transfected cells
# T1 sequence (P22270 27-601 C261Y): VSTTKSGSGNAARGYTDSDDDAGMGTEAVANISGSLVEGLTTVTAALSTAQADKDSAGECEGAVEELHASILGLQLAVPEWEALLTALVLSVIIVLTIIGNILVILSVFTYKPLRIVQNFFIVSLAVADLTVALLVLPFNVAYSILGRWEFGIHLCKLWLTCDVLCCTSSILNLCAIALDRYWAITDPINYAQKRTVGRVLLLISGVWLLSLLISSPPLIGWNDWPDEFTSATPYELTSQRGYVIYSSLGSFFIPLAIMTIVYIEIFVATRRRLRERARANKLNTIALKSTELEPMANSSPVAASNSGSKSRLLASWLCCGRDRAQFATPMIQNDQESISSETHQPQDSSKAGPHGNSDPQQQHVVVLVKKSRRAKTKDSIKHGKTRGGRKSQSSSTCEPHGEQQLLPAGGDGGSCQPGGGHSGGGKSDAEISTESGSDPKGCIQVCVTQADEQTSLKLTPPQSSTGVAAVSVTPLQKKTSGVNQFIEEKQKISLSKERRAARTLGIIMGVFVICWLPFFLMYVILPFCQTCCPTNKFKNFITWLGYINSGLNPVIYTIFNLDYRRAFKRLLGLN
# [2] = molecular target: T2, Drosophila tyramine receptor (droTyrR) (Drosophila melanogaster, UniProt P22270, C261Y); experiment: Intracellular calcium ([Ca2+]i) in S2 cells stably transfected with Drosophila tyramine receptor (Fura-2 AM); format: cell-based; conditions: 1 μM; Dro-TyrR-expressing S2 cells; no increase in pAC control cells (FIG. 25)
# T2 construct: The open reading frame contained in this PCR product encodes a protein of 601 amino acids; expressed in transfected cells
# T2 sequence (P22270 27-601 C261Y): T1 sequence (P22270 27-601 C261Y)
# Method: The blend (at a final concentration of 0.5 mg/mL) was tested on a Drosophila Scheider 2 (“S2”) cell line that was stably transfected with a DNA encoding a tyramine receptor that was amplified from a Drosophila melanogaster head cDNA phage library (“droTyrR”). The intracellular calcium levels (“[Ca^2+]i”) in the treated S2 cells were then measured as a function of time. As a comparison, the a solution of carrier (canola oil, final concentration=0.12 mg/mL) and a solution of surfactant (sugar ester OWA-1570) in insect saline were tested separately.
# In a separate set of experiments, the blend (at a final concentration of 0.5 mg/mL) was tested on a Drosophila Scheider 2 (“S2”) cell line that was stably transfected with droTyrR DNA, and the intracellular calcium levels (“[Ca^2+]i”) in the treated S2 cells were then measured as a function of time. […]
# In yet another separate set of experiments, the blend (at a final concentration of 0.5 mg/mL) was tested on a Drosophila Scheider 2 (“S2”) cell line that was stably transfected with droTyrR DNA, and the intracellular calcium levels (“[Ca^2+]i”) in the treated S2 cells were then measured as a function of time. […]
# Increased cytoplasmic concentrations of IP3 induce release of Ca2+ from the endoplasmic reticulum. […] Data are normalized by dividing each value by the background fluorescence at the beginning of the assay before adding the test sample. […]
# [3] = molecular target: T1, Drosophila TyrR; experiment: 3H-tyramine saturation binding to membranes of S2 cells expressing TyrR; conditions: 0.1 to 30 nM 3H-tyramine
# Method: To first isolate membranes, Dro-TyrR-expressing S2 cells grown in Drosophila media are harvested in the same media by scraping from the dishes and then rinsing dishes with PBS. The cells are centrifuged at 1000 g for 3 min, washed once with PBS and centrifuged again as previously described. The cells are suspended in ice cold hypotonic buffer (10 mM Tris-Cl, pH 7.4), incubated on ice for 10 min, and lysed using a glass Bounce homogenizer and tight glass pestle (Kontes Glass Co., Vineland, N.J.) with 10 strokes. Nuclei are pelleted by centrifugation at 600 g for 5 min. The supernatant is decanted and centrifuged at 30,000 g for 30 min to pellet a crude membrane fraction. The pellet is suspended in binding buffer (50 mM Tris-Cl, 5 mM MgCl2, pH 7.4). Protein concentration is determined by the Bradford Assay (Bio-Rad Laboratories, Hercules, Calif.). Membranes are frozen on dry ice then stored at −75° C. in aliquots.
# […] The binding reaction is incubated at 23° C. in the presence and absence of 10 μM unlabeled tyramine. Reactions are terminated after 60 min by addition of 3 ml ice cold binding buffer and filtered over GF/C filters that have been soaked for 30 min in 0.3% polyethylenimine. Filters are rinsed one additional time with 3 ml binding buffer. […]
smiles,measurement,setting,value
"NCC(O)c1ccc(O)cc1 (racemic) [Octopamine (OA), DL-octopamine]",Ki,[1]; competitive binding with 3H-tyramine,28.7 µM
"NCCc1ccc(O)cc1 [Tyramine (TA), Tyramine]",Ca2+-bound Fura-2 AM fluorescence,[2],sharp increase
same,affinity for TyrR relative to DL-octopamine,[1]; ratio of Ki values,about 22.58 fold
NCCc1ccc(O)cc1 [^3H-tyramine],Kd,"[3]; 10 μM unlabeled tyramine for nonspecific binding, read-out: Kd for specific binding",0.00256 µM
same,Bmax for specific binding,[3]; membranes of TyrR-expressing S2 cells,0.679 pmol receptor/mg membrane protein
